From US20230416247A1, “DRUG-LIKE MOLECULES AND METHODS FOR THE THERAPEUTIC TARGETING OF MICRORNA-21” (University of Washington, priority 2020, published 2023)

What was measured:
[1] = system: pre-Let7 processing by Dicer-TRBP; assay: Dicer/TRBP in vitro processing of pre-Let7; type: biochemical, human; settings: 2 μM compound vs no compound
Method: In order to further assess the biochemical activity of our compounds, processing of pre-miR-21 and pre-Let7 by Dicer-TRBP in vitro was compared. FIGS. 9A and 9B show selective response in the rate of processing under early phase reaction conditions, before significant product builds up, for pre-miR21 compared to pre-Let7.
The results are specific to the initial rates (0.25-5 min) of the reaction. […] This is inevitable because Dicer binds the product tightly. This assay and method of inhibiting miR-21 synthesis is different than typical enzymatic assays. First, the small molecule is targeting the substrate of the enzymatic assay. High affinity compounds that change the structure of the substrate may reduce processing but might not inhibit processing completely. Rather, changes in the specificity constant (kcat/Km), are a better measure of small molecule inhibition than traditional Ki's.
Dicer/TRBP. The Dicer/TRBP enzyme complex was expressed and purified using published methods and stored at −80° C. in 20 μL aliquots until needed. Briefly, the gene encoding human full-length Dicer was inserted into a modified pFastBac1 vector (Invitrogen), which has an N-terminal glutathione-S-transferase (GST) tag. […] The clones were transformed into Rosetta 2 cells and the transformants were grown in LB media at 37° C. until the cells reached a density corresponding to an OD reading of 0.8 at 600 nm. […]

[2] = system: miR-16, miR-28, miR-182 in gastric (AGS) cells; assay: qRT-PCR of miR-16, miR-28, miR-182 in AGS cells; type: cell-based, human; settings: 24-72 hours post incubation, vs DMSO
Method: Levels of each microRNA were measured at different times post incubation (24-72 hours) by standard qRT-PCR, normalized to internal controls (U6 or U8 snRNA), in both gastric (AGC) and pancreatic (ASPC1) cell lines. Levels of the microRNA are generally the same, within experimental uncertainty, in the absence (DMSO) or presence of compound −0052 (30).
FIGS. 15A-15F show the levels of mature miR-16, miR-28, and miR-182 are not consistently affected by the compounds in both gastric (AGS) and pancreatic (ASPC1) cell lines, over multiple time scales (24-72 hours), relative to control where DMSO was added, but no compound.
Cell line maintenance. Using the Cancer Cell Line Encyclopedia (CCLE), in-house cancer cell lines were screened to identify cancer and tissue types with varying levels of miR-21 expression. Experiments were performed using the human-derived cell lines AGS (gastric cancer) and AsPC-1 (pancreatic cancer). […]
Quantitative real time PCR analysis. […] RNA concentration was assessed with the NanoDrop ND-1000 spectrophotometer (ThermoFisher Scientific). […] Expression of miR-21 was assessed utilizing the TaqMan microRNA assay (Applied Biosystems). […] All experiments were performed in triplicate, with all samples normalized to the internal controls and relative expression levels calculated using the 2^ΔΔCt method.

| SMILES | DICER/TRBP activity on pre-Let7 [1] | cellular levels of miR-16, miR-28, miR-182 [2] |
| --- | --- | --- |
| O=c1[nH]c(Nc2ccc(N3CCNCC3)cn2)nc2cccnc12 [Compound 25] | no significant difference in activity is observed |  |
| O=c1[nH]c(Nc2ccc(N3CCNCC3)cn2)nc2cnccc12 [Compound 30] |  | does not affect cellular levels |
